Experimental data published in US20110305777A1, “DIMERIC IAP ANTAGONISTS” (Tetralogic Pharmaceuticals Corporation, priority 2006, published 2011).

The compounds below were run against XIAP BIR-3 and cIAP-1 BIR-3 (lower Kd of the two reported) (assay: Fluorescence polarization binding to IAP-BIR3 (competition with AbuRPF-K(5-Fam)-NH2)). Conditions: Table 1; lower of the Kd for XIAP BIR-3 and cIAP-1 BIR-3.
Experimental: The binding affinities of the compounds listed in Table 1 to an IAP were determined substantially as described by Nikolovska-Coleska, Z. et. al. (Analytical Biochemistry (2004), vol. 332:261-273) using a variety of fluorogenic substrates and is reported as a Kd value. Briefly, various concentrations of IAP antagonists were mixed with 5 nM fluorescently labeled peptide (AbuRPF-K(5-Fam)-NH2) and 40 nM of an IAP-BIR3 for 15 min at RT in […] of 0.1M Potassium Phosphate buffer, pH 7.5 containing […] bovine g-globulin. Following incubation, the polarization values (mP) were measured on a Victor2V using a 485 nm excitation filter and a 520 nm emission filter. IC50 values were determined from the plot using nonlinear least-squares analysis using GraphPad Prism. […] The reported Kd values are the lower of the Kd for XIAP BIR-3 and cIAP-1 BIR-3.
The following compound of the invention was also made and tested. The reported Kd value is the lower of the Kd for XIAP BIR-3 and cIAP-1 BIR-3.

SMILES | Kd [nM]
CNC(C)C(=O)NC(C(=O)N1CCC(O)C1Cc1c(-c2[nH]c3cc(F)ccc3c2CC2C(O)CCN2C(=O)C(NC(=O)C(C)NC)C(C)OC)[nH]c2cc(F)ccc12)C(C)OC (centres unmarked) [A] | < 100
CNC(CO)C(=O)NC(C(=O)N1CCC(O)C1Cc1c(-c2[nH]c3cc(F)ccc3c2CC2C(O)CCN2C(=O)C(NC(=O)C(CO)NC)C(C)OC)[nH]c2cc(F)ccc12)C(C)OC (centres unmarked) [B] | < 100
CNC(C)C(=O)NC(C(=O)N1CCC(O)C1Cc1c(-c2[nH]c3cc(F)ccc3c2CC2C(O)CCN2C(=O)C(NC(=O)C(C)NC)C(C)(C)C)[nH]c2cc(F)ccc12)C(C)(C)C (centres unmarked) [C] | < 100
CCC(NC)C(=O)NC(C(=O)N1CCC(O)C1Cc1c(-c2[nH]c3cc(F)ccc3c2CC2C(O)CCN2C(=O)C(NC(=O)C(CC)NC)C(C)(C)C)[nH]c2cc(F)ccc12)C(C)(C)C (centres unmarked) [D] | < 100
CCNC(C)C(=O)NC(C(=O)N1CCC(O)C1Cc1c(-c2[nH]c3cc(F)ccc3c2CC2C(O)CCN2C(=O)C(NC(=O)C(C)NCC)C(C)OC)[nH]c2cc(F)ccc12)C(C)OC (centres unmarked) [E] | < 100
CCC(NC)C(=O)NC(C(=O)N1CCC(O)C1Cc1c(-c2[nH]c3cc(F)ccc3c2CC2C(O)CCN2C(=O)C(NC(=O)C(CC)NC)C(C)OC)[nH]c2cc(F)ccc12)C(C)OC (centres unmarked) [F] | < 100
CNC(C)C(=O)NC(C(=O)N1CCC(OC)C1Cc1c(-c2[nH]c3cc(F)ccc3c2CC2C(OC)CCN2C(=O)C(NC(=O)C(C)NC)C(C)OC)[nH]c2cc(F)ccc12)C(C)OC (centres unmarked) [G] | < 100
CCC(NC)C(=O)NC(C(=O)N1CCC(OC)C1Cc1c(-c2[nH]c3cc(F)ccc3c2CC2C(OC)CCN2C(=O)C(NC(=O)C(CC)NC)C(C)OC)[nH]c2cc(F)ccc12)C(C)OC (centres unmarked) [H] | < 100

Further lines, results first:

Kd [nM] | SMILES
< 100 | CNC(C)C(=O)NC(C(=O)N1CCC(OC)C1Cc1c(-c2[nH]c3cc(F)ccc3c2CC2C(OC)CCN2C(=O)C(NC(=O)C(C)NC)C(C)(C)C)[nH]c2cc(F)ccc12)C(C)(C)C (centres unmarked) [I]
100 to 1000 | CCC(NC)C(=O)NC(C(=O)N1CCC(OC)C1Cc1c(-c2[nH]c3cc(F)ccc3c2CC2C(OC)CCN2C(=O)C(NC(=O)C(CC)NC)C(C)(C)C)[nH]c2cc(F)ccc12)C(C)(C)C (centres unmarked) [J]
< 100 | CCNC(C)C(=O)NC(C(=O)N1CCC(OC)C1Cc1c(-c2[nH]c3cc(F)ccc3c2CC2C(OC)CCN2C(=O)C(NC(=O)C(C)NCC)C(C)OC)[nH]c2cc(F)ccc12)C(C)OC (centres unmarked) [K]
< 100 | CCNC(C)C(=O)NC(C(=O)N1CCC(OC)C1Cc1c(-c2[nH]c3cc(F)ccc3c2CC2C(OC)CCN2C(=O)C(NC(=O)C(C)NCC)C(C)(C)C)[nH]c2cc(F)ccc12)C(C)(C)C (centres unmarked) [L]
< 100 | CNC(C)C(=O)NC(C(=O)N1CCC(C)C1Cc1c(-c2[nH]c3cc(F)ccc3c2CC2C(C)CCN2C(=O)C(NC(=O)C(C)NC)C(C)OC)[nH]c2cc(F)ccc12)C(C)OC (centres unmarked) [M]

Same assay, conditions: Table 4; lower of the Kd for XIAP BIR-3 and cIAP-1 BIR-3

Kd [nM] | SMILES
100 to 1000 | CNC(C)(C)C(=O)NC(C(=O)N1CC(O)CC1Cc1c(-c2[nH]c3cc(F)ccc3c2CC2CC(O)CN2C(=O)C(NC(=O)C(C)(C)NC)C(C)OC)[nH]c2cc(F)ccc12)C(C)OC (centres unmarked) [N]
